According to the supplement of paper PMC10331698:
± gives the standard deviation of the averaged measurements.

Experiments:
Assay in all cases: level (log10 ratio to DMSO vehicle control); higher = higher biomarker level / cell amount than vehicle control
Conditions in all cases: in DMSO
[1] = compound: O=C(O)CCC(F)(F)C(F)(F)C(F)(F)C(F)(F)C(F)(F)F [2H,2H,3H,3H-Perfluorooctanoic acid]
Procedure: (§1)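 BioMAP Diversity Plus panel of 12 human primary cell co-culture systems (3C, 4H, LPS, SAg, BT, BF4T, BE3C, CASM3C, HDF3CGF, KF3CT, MyoF, Mphg). Compounds were added 1 h before stimulation and left for 24 h (MyoF 48 h; BT 72 h for soluble read-outs or 6 d for IgG). Biomarkers were read by ELISA, cytotoxicity by SRB, PBMC viability and proliferation by Alamar Blue. Each well value was divided by the mean of 8 DMSO control wells on the same plate and log10 transformed; duplicate blinded samples were tested at 4 concentrations.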

[2] = compound: O=S(=O)(O)C(F)(F)C(F)(F)C(F)(F)C(F)(F)C(F)(F)C(F)(F)C(F)(F)C(F)(F)F [Potassium perfluorooctanesulfonate]
Procedure: as §1

[3] = compound: O=S(=O)(O)C(F)(F)C(F)(F)C(F)(F)C(F)(F)C(F)(F)C(F)(F)C(F)(F)C(F)(F)F [Perfluorooctanesulfonic acid]
Procedure: as §1

Row | Test System | level (log10) ([1]; 6700 nM) | level (log10) ([1]; 20000 nM) | level (log10) ([1]; 60000 nM) | level (log10) ([2]; 6700 nM) | level (log10) ([2]; 20000 nM) | level (log10) ([2]; 60000 nM) | level (log10) ([3]; 6700 nM) | level (log10) ([3]; 20000 nM) | level (log10) ([3]; 60000 nM)
1 | 3C:CCL2/MCP-1 | 0.0045 ± 0.015 | 0.006 ± 0.034 | 0.01 ± 0.016 | -0.056 ± 0.098 | -0.0125 ± 0.0035 | 0.009 ± 0.02 | 0.0115 ± 0.0035 | -0.012 ± 0.0028 | -0.0065 ± 0.013
2 | 3C:CD54/ICAM-1 | 0.0005 ± 0.0064 | -0.0055 ± 0.018 | -0.0175 ± 0.022 | -0.001 ± 0.0071 | 0.0235 ± 0.005 | 0.046 ± 0.0071 | 0.004 ± 0.023 | 0.0185 ± 0.019 | 0.071 ± 0.024
3 | 3C:CD62E/E-Selectin | -0.01 ± 0.038 | -0.015 ± 0.058 | 0.006 ± 0.033 | -0.0025 ± 0.015 | 0.0195 ± 0.046 | 0.063 ± 0.035 | 0.004 ± 0.0042 | 0.0175 ± 0.018 | 0.0695 ± 0.011
4 | 3C:CD106/VCAM-1 | -0.021 ± 0.0057 | -0.0295 ± 0.026 | -0.025 ± 0.023 | 0.001 ± 0.016 | 0.013 ± 0.023 | 0.0375 ± 0.037 | 0.0005 ± 0.026 | 0.0045 ± 0.035 | 0.0295 ± 0.015
5 | 3C:CD141/Thrombomodulin | -0.032 ± 0.078 | -0.0295 ± 0.022 | -0.0405 ± 0.029 | 0.007 ± 0.018 | -0.0055 ± 0.033 | 0.041 ± 0.0071 | -0.0015 ± 0.012 | -0.0025 ± 0.011 | 0.0455 ± 0.022
6 | 3C:CD142/Tissue Factor | 0.009 ± 0.0028 | 0.018 ± 0.0071 | 0.022 ± 0.0085 | -0.018 ± 0.024 | -0.0065 ± 0.04 | 0.049 ± 0.02 | -0.0185 ± 0.07 | -0.0285 ± 0.073 | 0.0315 ± 0.067
7 | BE3C:Keratin 8/18 | 0.0065 ± 0.0021 | -0.015 ± 0.011 | -0.004 ± 0.0057 | 0.0225 ± 0.00071 | 0.013 ± 0.0085 | -0.0155 ± 0.019 | 0.0205 ± 0.0021 | 0.016 ± 0.011 | -0.073 ± 0.04
8 | BE3C:MMP-1 | 0.019 ± 0.013 | 0.0225 ± 0.028 | 0.072 ± 0.048 | 0.182 ± 0.038 | 0.157 ± 0.021 | 0.198 ± 0.012 | 0.149 ± 0.067 | 0.155 ± 0.012 | -0.0685 ± 0.26
9 | BE3C:MMP-9 | -0.0025 ± 0.025 | -0.003 ± 0.014 | 0.0195 ± 0.033 | -0.0035 ± 0.012 | -0.13 ± 0.013 | -0.126 ± 0.024 | -0.0185 ± 0.018 | -0.117 ± 0.0035 | -0.215 ± 0.086
10 | BE3C:PAI-I | -0.0035 ± 0.0064 | 0.027 ± 0.011 | 0.044 ± 0.0057 | -0.0115 ± 0.012 | -0.255 ± 0.03 | -0.253 ± 0.037 | -0.006 ± 0.0014 | -0.195 ± 0.0028 | -0.301 ± 0.0035
11 | BE3C:SRB | 0.003 ± 0.0028 | -0.0015 ± 0.005 | 0.012 ± 0.018 | -0.0075 ± 0.0021 | -0.245 ± 0.034 | -0.306 ± 0.033 | -0.0095 ± 0.0064 | -0.2205 ± 0.00071 | -0.371 ± 0.016
12 | BE3C:tPA | -0.0005 ± 0.005 | -0.0035 ± 0.013 | 0.0265 ± 0.013 | 0.115 ± 0.0035 | -0.101 ± 0.027 | -0.165 ± 0.03 | 0.119 ± 0.013 | -0.09 ± 0.0099 | -0.253 ± 0.025
13 | BE3C:uPA | 0.0025 ± 0.011 | -0.009 ± 0.0085 | 0.0025 ± 0.005 | 0.0125 ± 0.0092 | -0.028 ± 0.0099 | -0.036 ± 0.016 | -0.003 ± 0.0099 | -0.031 | -0.122 ± 0.013
14 | CASM3C:CCL2/MCP-1 | -0.002 ± 0.014 | 0.002 ± 0.0042 | 0.013 ± 0.028 | 0.001 ± 0.024 | 0.01 ± 0.0057 | 0.0405 ± 0.021 | -0.0025 ± 0.015 | -0.0065 ± 0.0064 | 0.019 ± 0.023
15 | CASM3C:CD87/uPAR | -0.008 ± 0.013 | -0.011 ± 0.0071 | -0.0305 ± 0.0092 | -0.0025 ± 0.012 | -0.016 ± 0.0014 | -0.0095 ± 0.011 | -0.0005 ± 0.0078 | -0.0085 ± 0.015 | -0.016 ± 0.016
16 | CASM3C:CD106/VCAM-1 | 0.0025 ± 0.019 | 0.0115 ± 0.044 | 0.01 ± 0.018 | -0.0125 ± 0.019 | -0.0175 ± 0.005 | -0.104 ± 0.041 | -0.035 ± 0.0028 | -0.038 ± 0.016 | -0.104 ± 0.041

Row | Test System | level (log10) ([1]; 6700 nM) | level (log10) ([1]; 20000 nM) | level (log10) ([1]; 60000 nM) | level (log10) ([2]; 6700 nM) | level (log10) ([2]; 20000 nM) | level (log10) ([2]; 60000 nM) | level (log10) ([3]; 6700 nM) | level (log10) ([3]; 20000 nM) | level (log10) ([3]; 60000 nM)
17 | CASM3C:CD141/Thrombomodulin | -0.01 ± 0.04 | -0.036 ± 0.052 | -0.014 | 0.0235 ± 0.0021 | -0.004 ± 0.018 | -0.021 ± 0.031 | -0.007 ± 0.0085 | -0.0115 ± 0.0078 | -0.017 ± 0.031
18 | CASM3C:CD142/Tissue Factor | -0.0115 ± 0.022 | -0.0505 ± 0.0092 | -0.0095 ± 0.022 | -0.016 ± 0.041 | -0.014 ± 0.023 | -0.0265 ± 0.029 | -0.035 ± 0.02 | -0.033 ± 0.048 | -0.0525 ± 0.09
19 | CASM3C:CXCL8/IL-8 | 0.0055 ± 0.018 | -0.0055 ± 0.0021 | 0.0175 ± 0.00071 | 0.001 ± 0.027 | 0.023 ± 0.018 | 0.048 ± 0.04 | 0.001 ± 0.038 | 0.0045 ± 0.025 | 0.0485 ± 0.0021
20 | CASM3C:CXCL9/MIG | -0.0185 ± 0.00071 | -0.0285 ± 0.0092 | 0.0045 ± 0.042 | 0.015 ± 0.0071 | 0.012 ± 0.016 | 0.09 ± 0.027 | -0.0085 ± 0.00071 | -0.003 ± 0.0014 | 0.0705 ± 0.032
21 | CASM3C:HLA-DR | 0.004 ± 0.0057 | -0.026 ± 0.021 | -0.014 | -0.0015 ± 0.0021 | -0.035 ± 0.028 | -0.0235 ± 0.054 | -0.0365 ± 0.012 | -0.0465 ± 0.016 | -0.0395 ± 0.052
22 | CASM3C:IL-6 | -0.0035 ± 0.0064 | -0.008 ± 0.0057 | 0.0145 ± 0.05 | -0.025 ± 0.0042 | -0.0285 ± 0.016 | -0.0425 ± 0.083 | -0.0375 ± 0.0078 | -0.0465 ± 0.005 | -0.061 ± 0.099
23 | CASM3C:LDLR | 0.0005 ± 0.0021 | -0.001 ± 0.018 | 0.0095 ± 0.047 | 0.021 ± 0.0014 | 0.0275 ± 0.019 | -0.0205 ± 0.036 | -0.002 ± 0.0085 | -0.007 ± 0.0014 | -0.0165 ± 0.032
24 | CASM3C:M-CSF | -0.006 ± 0.0028 | -0.0035 ± 0.0064 | 0.0185 ± 0.06 | 0.003 ± 0.028 | 0.016 ± 0.016 | -0.007 ± 0.064 | -0.0135 ± 0.016 | 0.009 ± 0.0028 | -0.009 ± 0.03
25 | CASM3C:PAI-I | -0.0015 ± 0.013 | -0.0045 ± 0.019 | -0.012 ± 0.0099 | 0.009 | 0.004 | 0.0165 ± 0.0064 | -0.001 ± 0.0071 | 0 ± 0.0014 | 0.0095 ± 0.0021
26 | CASM3C:Proliferation | -0.014 ± 0.045 | 0.002 ± 0.0014 | 0.011 ± 0.04 | -0.0125 ± 0.033 | 0.006 ± 0.042 | 0.023 ± 0.0099 | 0.006 ± 0.042 | 0.0055 ± 0.022 | 0.057 ± 0.02
27 | CASM3C:SRB | -0.0045 ± 0.015 | -0.0105 ± 0.00071 | -0.0105 ± 0.0021 | 0.011 ± 0.0042 | 0.004 | 0.006 | 0.003 ± 0.0042 | 0.0005 ± 0.0064 | 0.0095 ± 0.011
28 | CASM3C:Serum Amyloid A | -0.0045 ± 0.0078 | -0.0195 ± 0.0092 | -0.0495 ± 0.028 | 0.0085 ± 0.026 | 0.001 ± 0.03 | 0.0125 ± 0.057 | 0.0035 ± 0.0021 | -0.017 ± 0.0014 | -0.005 ± 0.04
29 | HDF3CGF:CCL2/MCP-1 | 0.0015 ± 0.029 | 0.003 ± 0.0085 | 0.0065 ± 0.0078 | 0.002 ± 0.011 | -0.003 ± 0.0042 | 0.001 ± 0.017 | -0.005 ± 0.0042 | -0.013 ± 0.0071 | 0.01 ± 0.033
30 | HDF3CGF:CD54/ICAM-1 | -0.0095 ± 0.0064 | -0.0215 ± 0.019 | -0.036 ± 0.023 | -0.0015 ± 0.0064 | -0.002 ± 0.014 | -0.0525 ± 0.012 | -0.025 ± 0.013 | -0.0105 ± 0.00071 | -0.033 ± 0.014
31 | HDF3CGF:CD106/VCAM-1 | 0.046 ± 0.082 | 0.044 ± 0.088 | 0.0435 ± 0.071 | -0.032 ± 0.027 | -0.0925 ± 0.018 | -0.281 ± 0.026 | -0.043 ± 0.03 | -0.089 ± 0.0057 | -0.21 ± 0.083
